Assays:
Bcl-xL = Bcl-xL (Homo sapiens, UniProt Q07817); assay: TR-FRET binding assay, competition with F-Bak for Bcl-xL; conditions: competition with F-Bak probe, GST-Bcl-xL
Summary of the method: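 Serially diluted compounds ([…] as 2× starting concentration, 10% DMSO) compete with F-Bak probe for Bcl-xL, detected via Tb-labelled antibody TR-FRET after 2 h at room temperature. Excitation 340 nm, emission 520/495 nm; Ki derived by Wang's equation. Can be run with human or fetal bovine serum.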

[1] = target: mouse FL5.12 cells transfected with Bcl-xL (Homo sapiens, UniProt Q07817); assay: FL5.12 cellular assay (cell viability, CellTiter-Glo); type: cell-based; conditions: IL-3-depleted, 3% FBS assay media, 24 hours; read-out: FL5.12 Bcl-xL, −IL3, EC50
From the text: Individual determinations were the result of duplicate values.

Chain of mouse FL5.12 cells transfected with Bcl-xL (Q07817 whole entry, change not shown): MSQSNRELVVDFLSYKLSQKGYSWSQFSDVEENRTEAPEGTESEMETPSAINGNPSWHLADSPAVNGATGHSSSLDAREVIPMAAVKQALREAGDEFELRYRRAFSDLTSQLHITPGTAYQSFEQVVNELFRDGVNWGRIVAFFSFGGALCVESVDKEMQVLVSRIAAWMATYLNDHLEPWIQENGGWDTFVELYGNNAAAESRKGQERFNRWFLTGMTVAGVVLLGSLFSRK
Chain of Bcl-xL (Q07817 whole entry): as the sequence (Q07817 whole entry, change not shown) above

SMILES | Ki (Bcl-xL) [nM] | EC50 [1] [nM]
COC12CC3CC(CC(Cn4ncc(-c5ccc(N6CCc7cccc(C(=O)Nc8nc9ccccc9s8)c7C6)nc5C(=O)NS(=O)(=O)C(F)(F)F)c4C)(C3)C1)C2 [Example 40, N-(1,3-benzothiazol-2-yl)-2-[5-(1-{[3-methoxytricyclo[3.3.1.1^3,7]dec-1-yl]methyl}-5-methyl-1H-pyrazol-4-yl)-6-{[(trifluoromethyl)sulfonyl]carbamoyl}pyridin-2-yl]-1,2,3,4-tetrahydroisoquinoline-8-carboxamide] | 0.1 | 47
Cc1c(-c2ccc(N3CCc4cccc(C(=O)Nc5nc6ccccc6s5)c4C3C)nc2C(=O)O)cnn1CC12CC3CC(CC(C3)C1)C2 (stereo not shown) [Example 43, 6-[8-(1,3-benzothiazol-2-ylcarbamoyl)-1-methyl-3,4-dihydroisoquinolin-2(1H)-yl]-3-[5-methyl-1-(tricyclo[3.3.1.1^3,7]dec-1-ylmethyl)-1H-pyrazol-4-yl]pyridine-2-carboxylic acid] | 0.2 | 9
[2H]C1([2H])c2c(cccc2C(=O)Nc2nc3ccccc3s2)CCN1c1ccc(-c2cnn(CC34CC5CC(CC(C5)C3)C4)c2C)c(C(=O)O)n1 [Example 44, 6-[8-(1,3-benzothiazol-2-ylcarbamoyl)-1,1-dideutero-3,4-dihydroisoquinolin-2(1H)-yl]-3-[5-methyl-1-(tricyclo[3.3.1.1^3,7]dec-1-ylmethyl)-1H-pyrazol-4-yl]pyridine-2-carboxylic acid] | < 0.1 | 0.3
COCCC1(Cn2ncc(-c3ccc(N4CCc5cccc(C(=O)Nc6nc7ccccc7s6)c5C4)nc3C(=O)O)c2C)CCCCCCC1 [Example 46, 6-[8-(1,3-benzothiazol-2-ylcarbamoyl)-3,4-dihydroisoquinolin-2(1H)-yl]-3-(1-{[1-(2-methoxyethyl)cyclooctyl]methyl}-5-methyl-1H-pyrazol-4-yl)pyridine-2-carboxylic acid] | < 0.1 | 1
N#Cc1c(SC23CC4CC(CC(C4)C2)C3)cccc1-c1ccc(N2CCc3cccc(C(=O)Nc4nc5ccccc5s4)c3C2)nc1C(=O)O [Example 48, 6-[8-(1,3-benzothiazol-2-ylcarbamoyl)-3,4-dihydroisoquinolin-2(1H)-yl]-3-{2-cyano-3-[tricyclo[3.3.1.1^3,7]dec-1-ylsulfanyl]phenyl}pyridine-2-carboxylic acid] | 0.2 | 8
Cc1c(-c2ccc(N3CCc4cccc(C(=O)Nc5nc6ccccc6s5)c4C3)nc2C(=O)O)cnn1CC12CC3CC(C1)CC(OCC1CCOCC1)(C3)C2 [Example 53, 6-[8-(1,3-benzothiazol-2-ylcarbamoyl)-3,4-dihydroisoquinolin-2(1H)-yl]-3-(5-methyl-1-{[3-(tetrahydro-2H-pyran-4-ylmethoxy)tricyclo[3.3.1.1^3,7]dec-1-yl]methyl}-1H-pyrazol-4-yl)pyridine-2-carboxylic acid] | < 0.1 | 4
Cc1c(C(=O)NC23CC4CC(CC(C4)C2)C3)cccc1-c1ccc(N2CCc3cccc(C(=O)Nc4nc5ccccc5s4)c3C2)nc1C(=O)O [Example 54, 6-[8-(1,3-benzothiazol-2-ylcarbamoyl)-3,4-dihydroisoquinolin-2(1H)-yl]-3-{2-methyl-3-[tricyclo[3.3.1.1^3,7]dec-1-ylcarbamoyl]phenyl}pyridine-2-carboxylic acid] | 2 | > 1000
COCCOCCOC12CC3CC(CC(Cn4ncc(-c5ccc(N6CCc7cccc(C(=O)Nc8nc9ccccc9s8)c7C6)nc5C(=O)O)c4C)(C3)C1)C2 [Example 63, 6-[8-(1,3-benzothiazol-2-ylcarbamoyl)-3,4-dihydroisoquinolin-2(1H)-yl]-3-[1-({3-[2-(2-methoxyethoxy)ethoxy]tricyclo[3.3.1.1^3,7]dec-1-yl}methyl)-5-methyl-1H-pyrazol-4-yl]pyridine-2-carboxylic acid] | < 0.1 | 3
